Measurements reported in patent publication US9913843B2, “Protein kinase C inhibitors and uses thereof” (Rigel Pharmaceuticals, Inc., priority 2012, dated 2018).
Read-outs that look alike come from different tables or passages of the source.

Test system: PKC mediated IL-2 production in human primary T cells
Assay: IL-2 ELISA, human primary T cell, anti CD3+CD28+ (whole cell functional assay for PKC mediated IL-2 production)
Assay type: cell-based
In short: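 IL-2 in supernatants was quantified by ELISA after 24 h at 37 °C. Before stimulation with plate-coated anti-CD3 (1 μg/ml) and anti-CD28 (5 μg/ml), T cells expanded from PBMC were exposed to compound for 1 h; the counter-screen replaced antibodies with PMA 0.5 ng/ml and ionomycin 0.1 μM (final).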

[1] = 24 h, human primary T cells stimulated with anti-CD3 + anti-CD28, IL-2 by ELISA, read-out: IC50 for blocking IL-2 production
[2] = human primary T cells stimulated with anti-CD3 + anti-CD28, 24 h, IL-2 by ELISA, 8 pt, read-out: IL2 ELISA, Human primary T cell, anti-CD3 + CD28, 8 pt (IC50)

Row | IC50 [1] | IC50 [2] | Structure (SMILES)
1 | < 30000 nM | 76 nM | Cc1nnnn1-c1ccc(F)c(Nc2ncc(C#N)c(NC[C@@H]3CCCN4CCCC[C@H]34)n2)c1 [Compound 118, 4-(((1S,9aR)-octahydro-1H-quinolizin-1-yl)methylamino)-2-(2-fluoro-5-(5-methyl-1H-tetrazol-1-yl)phenylamino)pyrimidine-5-carbonitrile]
2 | < 30000 nM | 35.7 nM | Cc1ccc(Nc2ncc(C#N)c(NC[C@@H]3CCCN4CCCC[C@H]34)n2)cc1C#N [Compound 119, 4-(((1S,9aR)-octahydro-1H-quinolizin-1-yl)methylamino)-2-(3-cyano-4-methylphenylamino)pyrimidine-5-carbonitrile]
3 | < 30000 nM | 9.3 nM | N#Cc1cc(Nc2ncc(C#N)c(NC[C@@H]3CCCN4CCCC[C@H]34)n2)ccc1C1CC1 [Compound 120, 4-(((1S,9aR)-octahydro-1H-quinolizin-1-yl)methylamino)-2-(3-cyano-4-cyclopropylphenylamino)pyrimidine-5-carbonitrile]
4 | < 30000 nM | 141 nM | COc1cc(Nc2ncc(C#N)c(NC[C@@H]3CCCN4CCCC[C@H]34)n2)cc(OC)c1 [Compound 121, 4-(((1S,9aR)-octahydro-1H-quinolizin-1-yl)methylamino)-2-(3,5-dimethoxyphenylamino)pyrimidine-5-carbonitrile]
5 | < 30000 nM | 20.6 nM | N#Cc1cnc(Nc2ccc(F)c(-n3nnnc3C3CC3)c2)nc1NC[C@@H]1CCCN2CCCC[C@H]12 [Compound 122, 4-(((1S,9aR)-octahydro-1H-quinolizin-1-yl)methylamino)-2-(3-(5-cyclopropyl-1H-tetrazol-1-yl)-4-fluorophenylamino)pyrimidine-5-carbonitrile]
6 | < 30000 nM | 41.8 nM | N#Cc1cnc(Nc2cc(-n3nnnc3C3CC3)ccc2F)nc1NC[C@@H]1CCCN2CCCC[C@H]12 [Compound 123, 4-(((1S,9aR)-octahydro-1H-quinolizin-1-yl)methylamino)-2-(5-(5-cyclopropyl-1H-tetrazol-1-yl)-2-fluorophenylamino)pyrimidine-5-carbonitrile]
7 | < 30000 nM | 3.1 nM | N#Cc1cnc(Nc2ccc(Cl)c(-n3nnnc3C3CC3)c2)nc1NC[C@@H]1CCCN2CCCC[C@H]12 [Compound 124, 4-(((1S,9aR)-octahydro-1H-quinolizin-1-yl)methylamino)-2-(4-chloro-3-(5-cyclopropyl-1H-tetrazol-1-yl)phenylamino)pyrimidine-5-carbonitrile]
8 | < 30000 nM | 1780 nM | COc1ccc(Nc2ncc(C(N)=O)c(NC[C@@H]3CCCN4CCCC[C@H]34)n2)cc1-n1nnnc1C [Compound 125, 4-(((1S,9aR)-octahydro-1H-quinolizin-1-yl)methylamino)-2-(4-methoxy-3-(5-methyl-1H-tetrazol-1-yl)phenylamino)pyrimidine-5-carboxamide]
9 | < 30000 nM | 1600 nM | Cc1nnnn1-c1cc(Nc2ncc(C(N)=O)c(NC[C@@H]3CCCN4CCCC[C@H]34)n2)ccc1F [Compound 126, 4-(((1S,9aR)-octahydro-1H-quinolizin-1-yl)methylamino)-2-(4-fluoro-3-(5-methyl-1H-tetrazol-1-yl)phenylamino)pyrimidine-5-carboxamide]
10 | < 30000 nM | 824 nM | Cc1nnnn1-c1ccc(F)c(Nc2ncc(C(N)=O)c(NC[C@@H]3CCCN4CCCC[C@H]34)n2)c1 [Compound 127, 4-(((1S,9aR)-octahydro-1H-quinolizin-1-yl)methylamino)-2-(2-fluoro-5-(5-methyl-1H-tetrazol-1-yl)phenylamino)pyrimidine-5-carboxamide]
11 | < 30000 nM | 1940 nM | Cn1nnn(-c2cc(Nc3ncc(C#N)c(NC[C@@H]4CCCN5CCCC[C@H]45)n3)c(F)cc2O)c1=O [Compound 128, 2-((2-fluoro-4-hydroxy-5-(4-methyl-5-oxo-4,5-dihydro-1H-tetrazol-1-yl)phenyl)amino)-4-((((1S,9aR)-octahydro-2H-quinolizin-1-yl)methyl)amino)pyrimidine-5-carbonitrile]
12 | < 30000 nM | 1340 nM | COCCOc1cc(F)c(Nc2ncc(C#N)c(NC[C@@H]3CCCN4CCCC[C@H]34)n2)cc1-n1nnn(C)c1=O [Compound 129, 2-((2-fluoro-4-(2-methoxyethoxy)-5-(4-methyl-5-oxo-4,5-dihydro-1H-tetrazol-1-yl)phenyl)amino)-4-((((1S,9aR)-octahydro-2H-quinolizin-1-yl)methyl)amino)pyrimidine-5-carbonitrile]
13 | < 30000 nM | 444 nM | Cn1nnn(-c2cc(Nc3ncc(C#N)c(NC[C@@H]4CCCN5CCCC[C@H]45)n3)c(F)cc2OCC2(C)COC2)c1=O [Compound 130, 2-((2-fluoro-5-(4-methyl-5-oxo-4,5-dihydro-1H-tetrazol-1-yl)-4-((3-methyloxetan-3-yl)methoxy)phenyl)amino)-4-((((1S,9aR)-octahydro-2H-quinolizin-1-yl)methyl)amino)pyrimidine-5-carbonitrile]
14 | < 30000 nM | 1300 nM | Cn1nnn(-c2cc(Nc3ncc(C#N)c(NC[C@@H]4CCCN5CCCC[C@H]45)n3)c(F)cc2OCC2COCCO2)c1=O (stereo partly drawn) [Compound 131, 2-((4-((1,4-dioxan-2-yl)methoxy)-2-fluoro-5-(4-methyl-5-oxo-4,5-dihydro-1H-tetrazol-1-yl)phenyl)amino)-4-((((1S,9aR)-octahydro-2H-quinolizin-1-yl)methyl)amino)pyrimidine-5-carbonitrile]
15 | < 30000 nM | 1240 nM | Cn1nnn(-c2cc(Nc3ncc(C#N)c(NC[C@@H]4CCCN5CCCC[C@H]45)n3)c(F)cc2OCC(O)CO)c1=O (stereo partly drawn) [Compound 132, 2-((4-(2,3-dihydroxypropoxy)-2-fluoro-5-(4-methyl-5-oxo-4,5-dihydro-1H-tetrazol-1-yl)phenyl)amino)-4-((((1S,9aR)-octahydro-2H-quinolizin-1-yl)methyl)amino)pyrimidine-5-carbonitrile]
16 | < 30000 nM | 992 nM | COCCOCCOc1cc(F)c(Nc2ncc(C#N)c(NC[C@@H]3CCCN4CCCC[C@H]34)n2)cc1-n1nnn(C)c1=O [Compound 133, 2-((2-fluoro-4-(2-(2-methoxyethoxyl)ethoxy)-5-(4-methyl-5-oxo-4,5-dihydro-1H-tetrazol-1-yl)phenyl)amino)-4-((((1S,9aR)-octahydro-2H-quinolizin-1-yl)methyl)amino)pyrimidine-5-carbonitrile]
17 | < 30000 nM | 908 nM | Cn1nnn(-c2cc(Nc3ncc(C#N)c(NC[C@@H]4CCCN5CCCC[C@H]45)n3)c(F)cc2OCC(O)(C(F)(F)F)C(F)(F)F)c1=O [Compound 134, 2-((2-fluoro-5-(4-methyl-5-oxo-4,5-dihydro-1H-tetrazol-1-yl)-4-(3,3,3-trifluoro-2-hydroxy-2-(trifluoromethyl)propoxy)phenyl)amino)-4-((((1S,9aR)-octahydro-2H-quinolizin-1-yl)methyl)amino)pyrimidine-5-carbonitrile]
18 | < 30000 nM | – | Cn1nnn(-c2cc(Nc3ncc(C#N)c(NC[C@@H]4CCCN5CCCC[C@H]45)n3)c(F)cc2OCCO)c1=O [Compound 135, 2-((2-fluoro-4-(2-hydroxyethoxy)-5-(4-methyl-5-oxo-4,5-dihydro-1H-tetrazol-1-yl)phenyl)amino)-4-((((1S,9aR)-octahydro-2H-quinolizin-1-yl)methyl)amino)pyrimidine-5-carbonitrile]
